In patent publication US20090275562A1 (Cypress Biosciences, Inc., priority 2008, published 2009):

Key:
[1] = system: 5-HT and NA reuptake sites; conditions: from U.S. Pat. No. 6,642,235; cited from earlier work
[2] = controlled studies, cited from earlier work
[3] = Example 1A clinical study, 6-week weight gain/loss with mirtazapine and reboxetine; type: in vivo, human; conditions: for Mean Change from Baseline (weight): Week 6, 4 mg reboxetine morning, 15 mg mirtazapine evening, female volunteers; for mean change in body mass over the course of the study, in words (FIGS. 1-4): completers with fasted body mass at baseline and end of week 6; for 6-week weight gain (or loss), in words: versus placebo, 6 weeks of therapy
Method: All medications were administered in an over-encapsulated format that ensures blinding of study participants, staff and investigators. All subjects received a total of 6 weeks of therapy. Vital signs and weight assessments were made at clinic visits at the beginning and end of the study and at various times during the study. Patient outcomes of sleep quality and propensity were evaluated using the Karolinska Sleepiness Scale (KSS) and the Epworth Sleepiness Scale (ESS). Standard safety review was also conducted for each of the subjects, including recordation of any adverse events.
Sensitivity analysis was performed for completers and for intention-to-treat, last observation carried forward ([…]).

[4] = Example 1 tolerability study of mirtazapine and reboxetine in healthy subjects; type: in vivo, human; conditions: 6 weeks; 15 mg mirtazapine evening, 2 or 4 mg reboxetine morning; present-tense example
Method: (§1) The subjects receive 2 capsules per day, one in the morning and one at bedtime. […] All medications are administered in an over-encapsulated format that ensures blinding of study participants, staff and investigators. All subjects are scheduled to receive a total of 6 weeks of therapy, and are required to return to the clinics after 1, 2, 4 and 6 weeks of therapy. Patients are required to complete paper self-assessments, electronic diary assessments, computer based cognitive testing, as well as vital signs and weight assessments at the clinic visits.

[5] = Example 4 tolerability study of mirtazapine and betahistine in healthy subjects; type: in vivo, human; conditions: 6 weeks; 15 mg mirtazapine evening, 8 or 16 mg betahistine morning; present-tense example
Method: as §1

[6] = Completers and MF (morning fasting) weight

Compound | norepinephrine reuptake inhibitor selectivity (Ki5HT/KiNA) [1] | weight gain of greater than or equal to 7% of body weight, share of patients ([2]; placebo 0%) | appetite increase reported, share of patients ([2]; placebo 2%) | Mean Change from Baseline (weight) [3, 6] | Mean Change from Baseline (weight) ([3]; Completers and NMF weight) | Mean Change from Baseline (weight) ([3]; ITT-LOCF & NMF weight) | Mean Change from Baseline (weight) ([3]; ITT-LOCF and MF weight) | mean change in body mass over the course of the study, in words (FIGS. 1-4) [3] | 6-week weight gain (or loss), in words [3] | side effects caused, in words [4] | side effects caused, in words [5] | increase in body weight / weight gain ([3]; 6 weeks, text summary of the tables (values of Table 1A-1, mean ± standard error))
(S,S)reboxetine | about 12,700 | – | – | – | – | – | – | – | – | – | – | –
CN(C)CCC=C1c2ccccc2CCc2ccccc21 [amitriptyline] | – | 5.9% | 6% | – | – | – | – | – | – | – | – | –
CCOc1ccccc1OC(c1ccccc1)C1CNCCO1 (racemic) [reboxetine, 2-[(2-ethoxyphenoxy)-phenyl-methyl]morpholine] | about 80 | – | – | -1.61 kg | -1.7 kg | -1.693 kg | -1.685 kg | decrease in body mass | weight loss as compared to placebo-only | insomnia, nausea/vomiting, and weight loss | insomnia, nausea/vomiting, and weight loss | –
CN1CCN2c3ncccc3Cc3ccccc3C2C1 (stereo not drawn) [mirtazapine, 1,2,3,4,10,14b-hexahydro-2-methylpyrazino[2,1-a]pyrido[2,3-c]benzazepine] | – | – | – | 2.215 kg | 1.943 kg | 1.8 kg | 2.043 kg | marked increase in body mass | significantly greater weight gain | weight gain, sedation, and cognitive deficits | weight gain, sedation, and cognitive deficits | 2.215 ± 0.385 kg
